Like-named read-outs stand apart in the source and are kept apart here.
Assays:
Type in all cases: biochemical
MMP-3h = MMP-3h (Homo sapiens (Human), UniProt P08254); test: Inhibition constant (Ki) on MMP-3h; details: human MMP-3
Outline: (§1)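 Ki values were determined against the human enzymes using a previously published inhibition protocol.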

MMP-10h = MMP-10h (Homo sapiens (Human), UniProt P09238); test: Inhibition constant (Ki) on MMP-10h; details: human MMP-10
MMP-13h = MMP-13h (Homo sapiens (Human), UniProt P45452); test: Inhibition constant (Ki) on MMP-13h; details: human MMP-13
Outline: as §1

MMP-14h = MMP-14h (Homo sapiens (Human), UniProt P50281); test: Inhibition constant (Ki) on MMP-14h; details: human MMP-14
Outline: as §1

MMP-9h = MMP-9h (Homo sapiens (Human), UniProt P14780); test: Inhibition constant (Ki) on MMP-9h; details: human MMP-9
Outline: as §1

MMP-12h = MMP-12h (Homo sapiens (Human), UniProt P39900); test: Inhibition constant (Ki) on MMP-12h; details: human MMP-12
MMP-2h = MMP-2h (Homo sapiens (Human), UniProt P08253); test: Inhibition constant (Ki) on MMP-2h; details: human MMP-2
Outline: as §1

MMP-8h = MMP-8h (Homo sapiens (Human), UniProt P22894); test: Inhibition constant (Ki) on MMP-8h; details: human MMP-8
Sequence of MMP-8h (P22894 101-467): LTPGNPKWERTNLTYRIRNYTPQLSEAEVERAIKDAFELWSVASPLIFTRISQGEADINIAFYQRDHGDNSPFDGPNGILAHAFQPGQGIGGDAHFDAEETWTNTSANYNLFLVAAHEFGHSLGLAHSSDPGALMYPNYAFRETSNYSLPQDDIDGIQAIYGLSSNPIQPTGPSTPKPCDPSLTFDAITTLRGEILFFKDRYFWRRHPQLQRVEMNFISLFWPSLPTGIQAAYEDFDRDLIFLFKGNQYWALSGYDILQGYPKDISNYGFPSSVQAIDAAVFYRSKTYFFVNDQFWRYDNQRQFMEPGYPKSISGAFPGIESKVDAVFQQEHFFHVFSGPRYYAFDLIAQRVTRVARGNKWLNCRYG

Sequence of MMP-10h (P09238 99-476): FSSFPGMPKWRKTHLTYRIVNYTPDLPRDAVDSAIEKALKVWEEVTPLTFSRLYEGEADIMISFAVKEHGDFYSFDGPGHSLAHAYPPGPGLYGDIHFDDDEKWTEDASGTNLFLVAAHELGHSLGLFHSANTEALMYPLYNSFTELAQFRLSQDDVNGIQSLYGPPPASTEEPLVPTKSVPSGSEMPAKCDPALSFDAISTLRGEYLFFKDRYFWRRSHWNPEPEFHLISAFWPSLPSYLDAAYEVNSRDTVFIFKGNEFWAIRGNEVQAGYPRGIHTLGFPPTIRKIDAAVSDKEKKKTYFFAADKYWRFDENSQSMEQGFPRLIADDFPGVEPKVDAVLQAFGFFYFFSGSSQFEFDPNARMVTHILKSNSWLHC
Sequence of MMP-3h (P08254 100-477): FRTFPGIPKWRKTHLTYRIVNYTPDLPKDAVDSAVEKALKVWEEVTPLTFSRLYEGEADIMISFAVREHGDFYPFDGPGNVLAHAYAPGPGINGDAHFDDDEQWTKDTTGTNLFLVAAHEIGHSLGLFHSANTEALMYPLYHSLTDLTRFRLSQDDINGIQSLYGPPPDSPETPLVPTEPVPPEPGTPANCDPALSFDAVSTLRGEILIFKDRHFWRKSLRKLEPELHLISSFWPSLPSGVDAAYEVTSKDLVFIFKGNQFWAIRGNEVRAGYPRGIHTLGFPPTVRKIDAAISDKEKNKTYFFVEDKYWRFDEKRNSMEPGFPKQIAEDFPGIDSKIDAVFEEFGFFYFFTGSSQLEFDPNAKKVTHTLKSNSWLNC
Sequence of MMP-9h (P14780 94-707): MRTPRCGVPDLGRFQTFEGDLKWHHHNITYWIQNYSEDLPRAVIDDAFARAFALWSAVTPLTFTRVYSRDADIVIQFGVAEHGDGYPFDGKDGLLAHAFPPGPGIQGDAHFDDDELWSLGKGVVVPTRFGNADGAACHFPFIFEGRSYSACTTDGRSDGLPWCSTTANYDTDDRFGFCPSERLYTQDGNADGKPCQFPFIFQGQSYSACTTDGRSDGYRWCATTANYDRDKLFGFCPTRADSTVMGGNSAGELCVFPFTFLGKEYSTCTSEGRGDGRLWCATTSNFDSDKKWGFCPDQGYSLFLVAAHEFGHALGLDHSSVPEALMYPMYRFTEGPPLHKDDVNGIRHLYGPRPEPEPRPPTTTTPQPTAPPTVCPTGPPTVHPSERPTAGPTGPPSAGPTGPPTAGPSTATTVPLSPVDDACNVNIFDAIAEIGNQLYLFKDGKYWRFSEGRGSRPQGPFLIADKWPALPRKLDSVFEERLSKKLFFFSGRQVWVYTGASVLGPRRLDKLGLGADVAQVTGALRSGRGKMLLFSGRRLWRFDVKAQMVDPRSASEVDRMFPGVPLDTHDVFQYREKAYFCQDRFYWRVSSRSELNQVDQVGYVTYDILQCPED
Sequence of MMP-12h (P39900 106-470): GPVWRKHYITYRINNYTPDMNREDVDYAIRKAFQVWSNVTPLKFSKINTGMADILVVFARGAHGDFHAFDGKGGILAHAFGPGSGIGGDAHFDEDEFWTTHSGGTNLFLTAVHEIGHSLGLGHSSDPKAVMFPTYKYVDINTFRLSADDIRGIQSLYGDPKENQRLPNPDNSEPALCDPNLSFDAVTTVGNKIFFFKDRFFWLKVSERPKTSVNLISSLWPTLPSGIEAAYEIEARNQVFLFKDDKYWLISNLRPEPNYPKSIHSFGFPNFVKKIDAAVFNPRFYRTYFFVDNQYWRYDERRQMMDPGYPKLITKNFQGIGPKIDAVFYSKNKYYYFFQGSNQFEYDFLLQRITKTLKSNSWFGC
Sequence of MMP-2h (P08253 110-660): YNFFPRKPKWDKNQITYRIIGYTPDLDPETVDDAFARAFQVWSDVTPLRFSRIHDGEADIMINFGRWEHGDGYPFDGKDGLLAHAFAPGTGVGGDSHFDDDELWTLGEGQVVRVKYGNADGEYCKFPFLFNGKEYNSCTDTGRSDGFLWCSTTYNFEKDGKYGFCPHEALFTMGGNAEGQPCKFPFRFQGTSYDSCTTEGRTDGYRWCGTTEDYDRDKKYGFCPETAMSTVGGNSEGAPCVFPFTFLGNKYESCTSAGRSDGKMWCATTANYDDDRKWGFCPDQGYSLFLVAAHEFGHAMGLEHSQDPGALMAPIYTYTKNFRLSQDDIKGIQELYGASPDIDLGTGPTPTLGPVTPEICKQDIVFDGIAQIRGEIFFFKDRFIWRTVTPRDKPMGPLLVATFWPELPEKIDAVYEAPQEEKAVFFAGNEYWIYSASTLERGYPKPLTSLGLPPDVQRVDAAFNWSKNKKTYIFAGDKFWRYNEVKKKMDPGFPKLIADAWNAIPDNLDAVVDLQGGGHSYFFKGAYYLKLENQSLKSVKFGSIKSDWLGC

Compound | Ki (MMP-3h; read-out: Ki MMP-3h) [µM] | Ki (MMP-10h; read-out: Ki MMP-10h) [µM] | Ki (MMP-13h; read-out: Ki MMP-13h) [µM] | Ki (MMP-14h; read-out: Ki MMP-14h) [µM] | Ki (MMP-9h; read-out: Ki MMP-9h) [µM] | Ki (MMP-12h; read-out: Ki MMP-12h) [µM] | Ki (MMP-2h; read-out: Ki MMP-2h) [µM] | Ki (MMP-8h; read-out: Ki MMP-8h) [µM] | Ki (MMP-3h) [µM] | Ki (MMP-10h) [µM] | Ki (MMP-13h) [µM] | Ki (MMP-14h) [µM] | Ki (MMP-9h) [µM] | Ki (MMP-12h) [µM] | Ki (MMP-2h) [µM] | Ki (MMP-8h) [µM]
NC(=O)[C@H](CCC(=O)O)NC(=O)[C@H](CCC(=O)O)NC(=O)CCc1ccc(-c2cccc(N)c2)cc1 [Compound 53, (S)-5-amino-4-((S)-2-(3-(3′-aminobiphenyl-4-yl)propanamido)-4-carboxybutanamido)-5-oxopentanoic acid] | > 1 | > 1 | > 1 | > 1 | > 1 | 0.19 | > 1 | > 1 |  |  |  |  |  |  |  | 
NC(=O)[C@H](CCC(=O)O)NC(=O)[C@H](CCC(=O)O)NC(=O)CCc1ccc(-c2cccc(O)c2)cc1 [Compound 54, (S)-5-amino-4-((S)-4-carboxy-2-(3-(3′-hydroxybiphenyl-4-yl)propanamido)butanamido)-5-oxopentanoic acid] | > 10 | > 1 | > 10 | > 10 | > 1 | 0.176 | > 10 | > 1 |  |  |  |  |  |  |  | 
NC(=O)[C@H](CCC(=O)O)NC(=O)[C@H](CCC(=O)O)NC(=O)CCc1ccc(-c2cccc([N+](=O)[O-])c2)cc1 [Compound 55, (S)-5-amino-4-((S)-4-carboxy-2-(3-(3′-nitrobiphenyl-4-yl)propanamido)butanamido)-5-oxopentanoic acid] |  |  |  |  |  |  |  |  | 0.878 | > 1 | 0.436 | > 5 | 0.685 | 0.073 | > 1 | > 1
NC(=O)[C@H](CCC(=O)O)NC(=O)[C@H](CCC(=O)O)NC(=O)CCc1ccc(-c2cccc(C(=O)O)c2)cc1 [Compound 56, 4′-(3-((S)-1-((S)-1-amino-4-carboxy-1-oxobutan-2-ylamino)-4-carboxy-1-oxobutan-2-ylamino)-3-oxopropyl)biphenyl-3-carboxylic acid] | > 10 | > 10 | > 5 | > 10 | > 1 | 0.091 | > 5 | > 1 |  |  |  |  |  |  |  | 
NC(=O)[C@H](CCC(=O)O)NC(=O)[C@H](CCC(=O)O)NC(=O)CCc1ccc(-c2cccc(Cl)c2)cc1 [Compound 57, (S)-5-amino-4-((S)-4-carboxy-2-(3-(3′-chlorobiphenyl-4-yl)propanamido)butanamido)-5-oxopentanoic acid] | > 10 | > 5 | > 5 | > 10 | > 1 | 0.057 | > 1 | > 1 |  |  |  |  |  |  |  | 
NC(=O)[C@H](CCC(=O)O)NC(=O)[C@H](CCC(=O)O)NC(=O)CCc1ccc(-c2cc(Cl)cc(Cl)c2)cc1 [Compound 58, (S)-5-amino-4-((S)-4-carboxy-2-(3-(3′,5′-dichlorobiphenyl-4-yl)propanamido)butanamido)-5-oxopentanoic acid] | > 1 | > 1 | > 1 | > 1 | 0.391 | 0.056 | > 1 | > 5 |  |  |  |  |  |  |  | 
COc1cccc(-c2ccc(CCC(=O)N[C@@H](CCC(=O)O)C(=O)N[C@@H](CCC(=O)O)C(N)=O)cc2)c1 [Compound 59, (S)-5-amino-4-((S)-4-carboxy-2-(3-(3′-methoxybiphenyl-4-yl)propanamido)butanamido)-5-oxopentanoic acid] | > 10 | > 1 | > 5 | > 10 | > 5 | 0.035 | > 5 | > 1 |  |  |  |  |  |  |  | 
NC(=O)[C@H](CCC(=O)O)NC(=O)[C@H](CCC(=O)O)NC(=O)CCc1ccc(-c2cccc(CO)c2)cc1 [Compound 60, (S)-5-amino-4-((S)-4-carboxy-2-(3-(3′-(hydroxymethyl)biphenyl-4-yl)propanamido)butanamido)-5-oxopentanoic acid] | > 10 | > 5 | > 5 | > 10 | > 5 | 0.052 | > 5 | 0.809 |  |  |  |  |  |  |  | 
NC(=O)CC[C@H](NC(=O)[C@H](CCC(=O)O)NC(=O)CCc1ccc(-c2ccc(-c3ccccc3)cc2)cc1)C(N)=O [Compound 62, (S)-5-((S)-1,5-diamino-1,5-dioxopentan-2-ylamino)-4-(3-(4′-phenylbiphenyl-4-yl)propanamido)-5-oxopentanoic acid] | 0.244 | 0.102 | 0.02 | > 1 | > 1 | 0.0052 | 0.045 | 0.452 |  |  |  |  |  |  |  | 
NCCCC[C@H](NC(=O)[C@H](CCC(=O)O)NC(=O)CCc1ccc(-c2ccc(-c3ccccc3)cc2)cc1)C(N)=O [Compound 63, (S)-5-((S)-1,6-diamino-1-oxohexan-2-ylamino)-4-(3-(4′-phenylbiphenyl-4-yl)propanamido)-5-oxopentanoic acid] | > 1 | 0.447 | 0.055 | > 1 | > 1 | 0.0143 | 0.11 | 0.621 |  |  |  |  |  |  |  | 
NC(=O)[C@H](CC(=O)O)NC(=O)[C@H](CCC(=O)O)NC(=O)CCc1ccc(-c2ccc(-c3ccccc3)cc2)cc1 [Compound 64, (S)-5-((S)-1-amino-3-carboxy-1-oxopropan-2-ylamino)-4-(3-(4′-phenylbiphenyl-4-yl)propanamido)-5-oxopentanoic acid] | 0.168 | 0.035 | 0.023 | > 5 | > 1 | 0.0033 | 0.055 | 0.287 |  |  |  |  |  |  |  | 
NC(=O)[C@H](Cc1ccc(O)cc1)NC(=O)[C@H](CCC(=O)O)NC(=O)CCc1ccc(-c2ccc(-c3ccccc3)cc2)cc1 [Compound 65, (S)-5-((S)-1-amino-3-(4-hydroxyphenyl)-1-oxopropan-2-ylamino)-4-(3-(4′-phenylbiphenyl-4-yl)propanamido)-5-oxopentanoic acid] | 0.62 | 0.119 | 0.033 | > 1 | > 1 | 0.0066 | 0.073 | 0.793 |  |  |  |  |  |  |  | 
C[C@H](NC(=O)[C@H](CCC(=O)O)NC(=O)CCc1ccc(-c2ccc(-c3ccccc3)cc2)cc1)C(N)=O [Compound 66, (S)-5-((S)-1-amino-1-oxopropan-2-ylamino)-4-(3-(4′-phenylbiphenyl-4-yl)propanamido)-5-oxopentanoic acid] | 0.238 | 0.13 | 0.0164 | > 10 | > 10 | 0.0022 | 0.049 | 0.532 |  |  |  |  |  |  |  | 
NC(=O)[C@H](Cc1c[nH]cn1)NC(=O)[C@H](CCC(=O)O)NC(=O)CCc1ccc(-c2ccc(-c3ccccc3)cc2)cc1 [Compound 67, (S)-5-((S)-1-amino-3-(1H-imidazol-4-yl)-1-oxopropan-2-ylamino)-4-(3-(4′-phenylbiphenyl-4-yl)propanamido)-5-oxopentanoic acid] | 0.337 | 0.168 | 0.036 | > 1 | > 1 | 0.0102 | 0.068 | 0.526 |  |  |  |  |  |  |  | 
NC(=O)[C@H](CO)NC(=O)[C@H](CCC(=O)O)NC(=O)CCc1ccc(-c2ccc(-c3ccccc3)cc2)cc1 [Compound 68, (S)-5-((S)-1-amino-3-hydroxy-1-oxopropan-2-ylamino)-4-(3-(4′-phenylbiphenyl-4-yl)propanamido)-5-oxopentanoic acid] | 0.108 | 0.071 | 0.0166 | > 1 | > 1 | 0.0035 | 0.031 | 0.227 |  |  |  |  |  |  |  | 

Source: patent publication US8691753B2 (priority 2009, dated 2014)
